Test results from patent publication US7825111B2, “Substituted spiroheterocycles” (Janssen Pharmaceutica NV, priority 2006, dated 2010).

What was measured:
human V1a receptor [1] = target: T1, human V1a receptor (Homo sapiens, UniProt P37288); assay: In-vitro binding assay, 3H-arginine-8-vasopressin, V1a membranes; conditions: membrane containing human V1a receptor; for IC50: 3H-vasopressin 0.65-0.75 nM; for inhibition at 0.2 µM: read-out: V1a (binding) Percent inhibition at 0.2 μM
Protocol: (§1) Assay buffer is 50 mM Tris-Cl, 5 mM MgCl2, 0.1% BSA (pH 7.5) containing 5 μg/ml of aprotinin, leupeptin, pepstatin, 50 μg/ml bacitracin, and 1 mM Pefabloc (4-(2-Aminoethyl)-benzenesulfonyl fluoride, hydrochloride manufactured by Roche Diagnostics Corporation, Indianapolis, Ind. and distributed by Boehringer Mannheim). H3 vasopressin is ^3H-arginine-8-vasopressin (NEN Life Sciences, Boston, Mass.; 68.5 Ci/mmol, final concentration in assay is 0.65-0.75 nM). Into wells of 96-well round bottom polypropylene plates are added buffer, test compound, membrane (containing human V1a or V2 receptor), and H3 vasopressin. The reaction plates are allowed to sit at room temperature for one hour. The samples are filtered through Unifilter GF/C plates (PerkinElmer Life Sciences, Boston, Mass.) presoaked in 0.3 polyethyleneimine. The plates are washed 5 times with cold physiological saline containing 0.05% Tween 20. After drying, the bottom of the filter plates are sealed and 0.025 ml of Microscint-20 (Packard Instrument Co, Meriden, Conn.) is added to each filter. The top of the plate is sealed, and the plate is counted. Non-specific binding is determined by the addition of 1.25 μM arginine-8-vasopressin in those wells. % Inh. is calculated as follows: % inhibition=100−100×peak response after drug/peak response before drug

human V1a receptor [2] = target: T1, human V1a receptor; assay: V1a vasopressin receptor functional activity (calcium mobilization, FLIPR, V1a-HEK cells); format: cell-based; conditions: inhibition of vasopressin-induced intracellular calcium mobilization in V1a-HEK cells
Protocol: The V1a receptor is a G-protein coupled receptor, which upon activation triggers an increase in intracellular calcium mobilization. To evaluate compounds for their functional V1a receptor activity, HEK-293 cells were transfected with the human V1a receptor (V1a-HEK cells). HEK-293 cells were grown in DMEM (Dulbecco's modified Eagle Media) supplemented with 10% FBS and glutamine. HEK-cells were passed biweekly by trypsinization and seeded into 96 well plates at 33,000 cells per well. HEK-293 cells were transfected with human V1a receptor DNA using DMRIE-C reagent from Life Technologies (Carlsbad, Calif.). Stable lines were generated by selecting cells grown in culture media containing geneticin. After growing in Packard Clear-View black 96 well plates for 4-6 days, V1a-HEK cells were loaded with the calcium-sensitive fluorescence dye, FLUO-3 AM. Changes in intracellular calcium mobilization were measured by quantitating intracellular fluorescence using FLIPR (Fluorometric Imaging Plate Reader; Molecular Devices, Sunnyvale, Calif.). Test compounds were first added to the cells and the resulting changes in fluorescence measured to detect receptor agonistic activity. Five minutes later the cells were challenged with vasopressin to test compounds for their antagonistic activity. Receptor antagonists inhibit the ability of vasopressin to stimulate increases in intracellular fluorescence. IC50's were calculated.

human V2 receptor [3] = target: T2, human V2 receptor (Homo sapiens, UniProt P30518); assay: In-vitro binding assay, 3H-arginine-8-vasopressin, V2 membranes; conditions: membrane containing human V2 receptor; for inhibition at 0.2 µM: read-out: V2 (binding) Percent inhibition at 0.2 μM; for IC50: 3H-vasopressin 0.65-0.75 nM
Protocol: as §1

human V2 receptor [4] = target: T2, human V2 receptor; assay: V2 vasopressin receptor functional activity (cAMP accumulation, V2-HEK cells); format: cell-based; parameters: expressed in transfected cells; host or cells: HEK-293; conditions: inhibition of vasopressin-stimulated cAMP accumulation in V2-HEK cells
Protocol: The V2 receptor is also a G-protein coupled receptor which when activated induces an increase in cAMP turnover. Antagonism against the V2 receptor is determined by measuring cAMP accumulation in transfected HEK-293 cells expressing the human V-2 receptor (V2-HEK cells). Compounds are tested for their ability to block the stimulatory effects of vasopressin on cAMP accumulation. The cell content of cAMP is measured by radioimmunoassay using NEN flashplates.

T1 sequence (P37288 whole entry): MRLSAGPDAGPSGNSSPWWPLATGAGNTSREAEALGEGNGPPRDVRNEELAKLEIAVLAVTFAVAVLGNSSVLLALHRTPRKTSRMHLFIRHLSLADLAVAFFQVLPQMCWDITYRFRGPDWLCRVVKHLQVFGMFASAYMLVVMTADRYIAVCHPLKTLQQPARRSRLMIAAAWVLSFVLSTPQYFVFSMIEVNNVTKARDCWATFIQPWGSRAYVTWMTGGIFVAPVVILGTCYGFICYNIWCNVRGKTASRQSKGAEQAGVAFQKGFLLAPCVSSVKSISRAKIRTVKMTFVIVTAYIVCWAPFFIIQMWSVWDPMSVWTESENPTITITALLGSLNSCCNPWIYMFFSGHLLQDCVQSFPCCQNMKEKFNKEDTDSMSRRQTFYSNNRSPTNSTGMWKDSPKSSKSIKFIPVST
T2 sequence (P30518 whole entry): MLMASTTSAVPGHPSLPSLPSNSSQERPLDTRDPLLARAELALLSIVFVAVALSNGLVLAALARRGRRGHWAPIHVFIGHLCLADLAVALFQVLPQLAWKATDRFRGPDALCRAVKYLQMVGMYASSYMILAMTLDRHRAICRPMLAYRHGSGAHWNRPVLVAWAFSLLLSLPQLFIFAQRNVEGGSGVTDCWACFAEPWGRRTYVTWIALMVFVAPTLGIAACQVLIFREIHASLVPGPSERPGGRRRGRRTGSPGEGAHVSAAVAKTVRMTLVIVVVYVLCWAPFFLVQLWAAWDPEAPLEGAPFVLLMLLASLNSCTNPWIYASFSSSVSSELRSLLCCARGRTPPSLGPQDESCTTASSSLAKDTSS

| SMILES | IC50 (human V1a receptor [1]) [nM] | IC50 (human V1a receptor [2]) [µM] | inhibition at 0.2 µM (human V2 receptor [3]) [%] | IC50 (human V2 receptor [4]) [µM] | IC50 (human V2 receptor [3]) [nM] | inhibition at 0.2 µM (human V1a receptor [1]) [%] |
| --- | --- | --- | --- | --- | --- | --- |
| CN1CCCC2(CCN(C(=O)c3ccc(NC(=O)c4ccccc4-c4ccccc4)cc3)c3ccccc3C2)C1=O (stereo not shown) [Compound 10, [1,1′-Biphenyl]-2-carboxamide, N-[4-[(2,3-dihydro-1′-methyl-2′-oxospiro{4H-1-benzazepine-4,3′-piperidin}-1(5H)-yl)carbonyl]phenyl}-] | 47 | 0.38 | – | – | 50 | – |
| CCN1CCCC2(CCN(C(=O)c3ccc(NC(=O)c4ccccc4-c4ccccc4)cc3)c3ccccc3C2)C1=O (stereo not shown) [Compound 11, [1,1′-Biphenyl]-2-carboxamide, N-[4-[(2,3-dihydro-1′-ethyl-2′-oxospiro{4H-1-benzazepine-4,3′-piperidin}-1(5H)-yl)carbonyl]phenyl}-] | 56 | 0.05 | – | 0.132 | 61 | – |
| CCOC(=O)CN1CCC2(CCN(C(=O)c3ccc(NC(=O)c4cc(F)ccc4Cl)cc3)c3ccccc3C2)C1=O (stereo not shown) [Compound 22, Spiro{4H-1-benzazepine-4,3′-pyrrolidin}-1′-acetic acid, 1-[{(2-chloro-5-fluorobenzoyl)amino}benzoyl]1,2,3,5-tetrahydro-2′-oxo, ethyl ester] | – | – | 17 | – | – | 66 |
| O=C(O)CN1CCC2(CCN(C(=O)c3ccc(NC(=O)c4cc(F)ccc4Cl)cc3)c3ccccc3C2)C1=O (stereo not shown) [Compound 23, Spiro{4H-1-benzazepine-4,3′-pyrrolidin}-1′-acetic acid, 1-[{(2-chloro-5-fluorobenzoyl)amino}benzoyl]1,2,3,5-tetrahydro-2′-oxo-] | – | – | 17 | – | – | 27 |
| O=C(Nc1ccc(C(=O)N2CCC3(CCNC3=O)Cc3ccccc32)cc1)c1ccccc1F (stereo not shown) [Compound 26, Benzamide, 2-fluoro-N-[4-{(2,3-dihydro-2′-oxospiro[4H-1-benzazepine-4,3-pyrrolidin}-1(5H)-yl)carbonyl}phenyl]] | 160 | – | – | – | 230 | – |
| O=C1CCCC2(CCN(C(=O)c3ccc(NC(=O)c4ccccc4-c4ccccc4)cc3)c3ccccc3C2)N1 (stereo not shown) [Compound 35, [1,1′-Biphenyl]-2-carboxamide, N-[4-[(2,3-dihydro-6′-oxospiro[4H-1-benzazepine-4,2′-piperidin]-1(5H)-yl)carbonyl]phenyl}-] | 45 | 0.05 | – | 0.06 | 230 | – |
| O=C(Nc1ccc(C(=O)N2CCC3(CCCNC3=O)Cc3ccccc32)cc1)c1ccccc1 (stereo not shown) [Compound 37, Benzamide, N-[4-{(2,3-dihydro-2′-oxospiro[4H-1-benzazepine-4,3-piperidin}-1(5H)-yl)carbonyl}phenyl]] | 50 | 0.12 | 23 | – | – | – |
| Cc1ccc(F)cc1C(=O)Nc1ccc(C(=O)N2CCC3(CCNC3=O)Cc3ccccc32)cn1 (stereo not shown) [Compound 38, Spiro{4H-1-benzazepine-4,3′-pyrrolidin}-[{(2-methyl-5-fluorobenzoyl)amino}nicotinoyl]1,2,3,5-tetrahydro-2′-oxo-] | – | 0.13 | – | 0.036 | 93 | 64 |
| COc1cc(C(=O)N2CCC3(CCN(C)C3=O)Cc3ccccc32)ccc1NC(=O)c1cc(F)ccc1Cl (stereo not shown) [Compound 39] | – | 0.07 | – | – | 8 | 58 |

Continued by falling IC50 (human V1a receptor [1]), values first:

| IC50 (human V1a receptor [1]) [nM] | IC50 (human V1a receptor [2]) [µM] | inhibition at 0.2 µM (human V2 receptor [3]) [%] | IC50 (human V2 receptor [4]) [µM] | IC50 (human V2 receptor [3]) [nM] | inhibition at 0.2 µM (human V1a receptor [1]) [%] | SMILES |
| --- | --- | --- | --- | --- | --- | --- |
| 43 | 0.08 | – | 0.437 | 37 | – | CN1CCC2(CCN(C(=O)c3ccc(NC(=O)c4ccccc4-c4ccccc4)cc3)c3ccccc3C2)C1=O (stereo not shown) [Compound 21, [1,1′-Biphenyl]-2-carboxamide, N-[4-[(2,3-dihydro-1′-methyl-2′-oxospiro{4H-1-benzazepine-4,3′-pyrrolidin}-1(5H)-yl)carbonyl]phenyl}-] |
| 27 | 0.05 | 17 | > 3 | – | – | O=C(Nc1ccc(C(=O)N2CCC3(CCCNC3=O)Cc3ccccc32)cc1)c1ccccc1F (stereo not shown) [Compound 36, Benzamide, 2-fluoro-N-[4-{(2,3-dihydro-2′-oxospiro[4H-1-benzazepine-4,3-piperidin}-1(5H)-yl)carbonyl}phenyl]] |
| 15 | – | – | – | 89 | – | Cc1ccc(F)cc1C(=O)Nc1ccc(C(=O)N2CCC3(CCNC3=O)Cc3ccccc32)cc1 (stereo not shown) [Compound 27, Spiro{4H-1-benzazepine-4,3′-pyrrolidin}-[{(2-methyl-5-fluorobenzoyl)amino}benzoyl]1,2,3,5-tetrahydro-2′-oxo-] |
| 9 | 0.05 | 63 | 0.49 | – | – | O=C(Nc1ccc(C(=O)N2CCC3(CCCNC3=O)Cc3ccccc32)cc1)c1cc(F)ccc1Cl (stereo not shown) [Compound 7, Benzamide, 2-chloro-N-[4-{(2,3-dihydro-2′-oxospiro[4H-1-benzazepine-4,3-piperidin}-1(5H)-yl)carbonyl}phenyl]-5-fluoro] |
| 8 | 0.01 | – | 0.226 | 150 | – | O=C(Nc1ccc(C(=O)N2CCC3(CCNC3=O)Cc3ccccc32)cc1)c1cc(F)ccc1Cl (stereo not shown) [Compound 18, Benzamide, 2-chloro-N-[4-{(2,3-dihydro-2′-oxospiro[4H-1-benzazepine-4,3-pyrrolidin}-1(5H)-yl)carbonyl}phenyl]-5-fluoro] |
| 7 | 0.054 | – | 0.062 | 18 | – | O=C(Nc1ccc(C(=O)N2CCC3(CCNC3=O)Cc3ccccc32)cc1)c1ccccc1-c1ccccc1 (stereo not shown) [Compound 25, [1,1′-Biphenyl]-2-carboxamide, N-[4-[(2,3-dihydro-2′-oxospiro{4H-1-benzazepine-4,3′-pyrrolidin}-1(5H)-yl)carbonyl]phenyl}-] |
